Several values for one entry are separate records, joined by “and”; a condition that tells them apart may be missing. Equal values may be shown once.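 Values below derive from 48-hour exposures of cells grown in 96-well plates, with endpoints linearly interpolated between the two concentrations bracketing the appropriate inhibition level. GI50 is the concentration that inhibits growth by half. TGI is the concentration that stops growth completely.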 Where a SMILES comes first, the peptide text is derived from it. The star is where a group is joined. Trt = c1ccc(C(c2ccccc2)(c2ccccc2)*)cc1; Cbz = O=C(OCc1ccccc1)*
Key:
Experiment in all cases: NCI anticancer screen, dose series, 48 h
[1] = tested on: SK-OV-3 ovarian
[2] = tested on: TK-10 renal
[3] = tested on: SK-MEL-28 melanoma
[4] = tested on: 786-0 renal
[5] = tested on: SW-620 colon
[6] = tested on: U251 CNS
[7] = tested on: SF-268 CNS
[8] = tested on: HS 578T breast
[9] = tested on: HL-60(TB) leukemia
[10] = tested on: HOP-62 NSCLC

Row | Structure (SMILES) | GI50 [1] | TGI [1] | GI50 [2] | TGI [2] | GI50 [3] | TGI [3] | GI50 [4] | TGI [4] | GI50 [5] | TGI [5] | GI50 [6] | TGI [6] | GI50 [7] | TGI [7] | GI50 [8] | TGI [8] | GI50 [9] | TGI [9] | GI50 [10] | TGI [10]
1 | CCOCC1(COCC)CCC(c2[nH]ncc2CN(C)CCNC)CC1 | > 100 µM | > 100 µM | > 100 µM | > 100 µM | > 100 µM | > 100 µM | > 100 µM | > 100 µM | > 100 µM | > 100 µM | > 100 µM | > 100 µM | > 100 µM | > 100 µM | > 100 µM | > 100 µM | > 100 µM | > 100 µM | > 100 µM | > 100 µM
2 | CN=C(N)c1ccc(N=C(N)c2ccc(-c3ccc(C(N)=Nc4ccc(C(N)=NC)cc4)cc3)cc2)cc1 | > 100 µM | > 100 µM | 35.9 µM | 97.1 µM | 41.8 µM | > 100 µM | > 100 µM | > 100 µM | > 100 µM | > 100 µM | 55.5 µM | > 100 µM | > 100 µM | > 100 µM | > 100 µM | > 100 µM | 58.3 µM | > 100 µM | > 100 µM | > 100 µM
3 | CC(=O)OCC1OC(n2c(=S)n(-c3ccc([N+](=O)[O-])cc3)c(=O)c3ccccc32)C(OC(C)=O)C(OC(C)=O)C1OC(C)=O (stereo not given) |  | 60.1 µM and 50.1 µM | 19.9 µM and 40.3 µM | 65.2 µM and 75.1 µM | 31 µM and 20.7 µM | > 82.5 µM and 59.7 µM | 17.9 µM | 45.6 µM and 39 µM | 18 µM and 30.4 µM | > 100 µM |  | 42 µM and 37.8 µM |  | 62.1 µM and 44.7 µM |  | 68.5 µM | 4.13 µM and 25.2 µM | 29.4 µM and 59.1 µM |  | 53.7 µM and 54.7 µM
4 | CC(C)=CCc1cc2c(cc1O)C1=C(C(=O)C3=C(C1=O)S(=O)(=O)CCN3)C(C=C(C)C)O2 (stereo not given) | 2.98 µM | 5.54 µM | 4.96 µM | 10.4 µM | 0.541 µM | 1.92 µM | 2.49 µM | 7.03 µM | 0.554 µM | 1.76 µM | 1.24 µM | 3.74 µM | 0.917 µM | 4.74 µM | 1.31 µM | 8.15 µM | 0.438 µM | 1.11 µM | 2.33 µM | 4.63 µM
5 | CN1CCN(CC(=O)N(C)c2ccc(N=C(c3ccccc3)c3c(O)[nH]c4ccc(C#N)cc34)cc2)CC1 | 0.614 µM | 21.1 µM | 10.5 µM | 24.5 µM | 2.21 µM | 4.62 µM | 2.3 µM | 14.6 µM | 1.9 µM | 6.93 µM | 2.14 µM | 6.88 µM | 2.62 µM | 14.6 µM | 0.0938 µM | 2.09 µM | 1.18 µM | 6.36 µM | 3.99 µM | 16.5 µM
6 | COc1cccc(/C=C/C(=O)c2ccc3cc(OC)ccc3c2)c1 | 10.7 µM | 22.7 µM | 15.6 µM | 46.4 µM | 12.6 µM | 48.1 µM | 10.9 µM | 19.2 µM | 7.03 µM | 20.5 µM | 14 µM | 42 µM | 15.5 µM | > 50 µM | 14.3 µM | 48.3 µM | 17.5 µM | > 50 µM | 17.3 µM | > 50 µM
7 | N#CCn1c(=O)c(Oc2ccc(F)cc2F)cc2cnc(NC3CCOCC3)nc21 | > 25 µM | > 25 µM | > 25 µM | > 25 µM | > 25 µM | > 25 µM | > 25 µM | > 25 µM | > 25 µM | > 25 µM | > 25 µM | > 25 µM | > 25 µM | > 25 µM | > 25 µM | > 25 µM | > 25 µM | > 25 µM | > 25 µM | > 25 µM
8 | COC(=O)C(CO)NC(=O)C(CSC(c1ccccc1)(c1ccccc1)c1ccccc1)NC(=O)OCc1ccccc1 (stereo not given) (Cbz-Cys(Trt)-Ser-OMe; configuration not given here) |  | > 90.1 µM |  | > 66.1 µM |  | 34 µM |  | 46.9 µM |  | 32.4 µM |  | 33.3 µM |  | 44.9 µM |  | 47.9 µM |  | > 43.6 µM |  | 46.5 µM
9 | O=C1NC(=NCCc2ccc(F)cc2)S/C1=C\c1ccc2ncccc2c1 | > 25 µM | > 25 µM | > 25 µM | > 25 µM | > 25 µM | > 25 µM | > 25 µM | > 25 µM | > 23.3 µM | > 25 µM | > 25 µM | > 25 µM | > 25 µM | > 25 µM | > 25 µM | > 25 µM | > 25 µM | > 25 µM | > 25 µM | > 25 µM
10 | c1cc(N[C@@H]2CCNC2)nc(-c2cnc3ccc(-c4cn[nH]c4)cn23)c1 | 7.8 µM | 68.6 µM | 15.3 µM | 62.8 µM | 4.35 µM | 16.9 µM | 10.6 µM | > 83.1 µM | 6.83 µM | 52.1 µM | 3.11 µM | 18.3 µM | 2.18 µM | 7.1 µM | 1.69 µM | 5.54 µM | 22.1 µM | 66.6 µM | 6.23 µM | 29.6 µM
11 | COc1ccc(C(O)c2cc3c(N)c(C(=O)Nc4ccc(Cl)cc4)sc3nc2C)cc1 (stereo not given) | 3.21 µM | 15.5 µM | 7.85 µM | 43.9 µM | 6.49 µM | 57.7 µM | 8.2 µM | 31.8 µM | 2.62 µM | 37.6 µM | 2.28 µM | 15.8 µM | 3.96 µM | 19.6 µM | 1.82 µM | 5.3 µM | 1.91 µM | 9.63 µM | 3.24 µM | 19.2 µM
12 | Clc1nccc2c(-c3csc(-c4c[nH]c5ccc(Br)cc45)n3)c[nH]c12 | 2.78 µM | 8.27 µM | 4.16 µM | 13.4 µM | 1.85 µM | 4.16 µM | 1.37 µM | 2.93 µM | 1.92 µM | 3.63 µM | 2.05 µM | 5.02 µM | 4.06 µM | 18 µM | 3.7 µM | 17.8 µM | 2.64 µM | 14.1 µM | 2.11 µM | 7.24 µM
